The values that follow come from patent US20250257054A1, “SALT FORMS OF A 4H-PYRAN-4-ONE STRUCTURED CYP11 A1 INHIBITOR” (ORION CORPORATION, priority 2021, published 2025).

Structures are written as SMILES. Structures can show the parent of a compound that is named as a salt.

Series [1] is described as follows: Short-term physical stability of salts at 40° C./75% RH for 2 weeks (XRPD). The settings on record: determined by XRPD. The series is classed as physicochemical. Here is the method: (§1) XRPD measurements were performed with the X-ray powder diffractometer Bruker D8 Advance at room temperature, using a copper filled X-ray tube (40 kV×40 mA) as the X-ray source, CuKα (λ=1.5418 Å), a 0.6 mm divergence slit, 2.5° Soller slits on both the primary and secondary beams and the 1-dimensional LynxEye detector (with aperture angle of 2.91593°). Data collection was done in the range of 3.8-33° 2θ with 0.02° increments, at a scan speed of 0.3°/s.
Short-term physical stability of various salts was studied by exposure at 40° C./75% RH for 2 weeks followed by measurement by XRPD.

Series [2] in a line: Slurry stability of crystalline forms of p-toluenesulfonic acid salt in different water activity conditions (XRPD). It is filed as physicochemical. The settings on record: for Resulting form 5° C. / Resulting form 25° C. / Resulting form 40° C.: slurry of Form 3 stirred 2-3 weeks. The protocol:
as §1
Stability of the crystalline forms of p-toluenesulfonic acid salt in different water activity conditions was studied in slurry experiments where crystalline form 3 was stirred for 2-3 weeks at 5° C., 25° C. and 40° C. in mixtures of ethanol:water, acetonitrile (ACN):water, methanol: water and methanol alone. 0.5 ml of solvent was added to 25 mg of each sample. The resulting crystalline form was determined by XRPD.

[3] abbreviates: ACN:water 92.1:7.9, water activity 0.81.
The mark [4] stands for this setting: ACN:water 96.3:3.7, water activity 0.58.
Where [5] appears, read: EtOH:water 30:70, water activity >0.9.
The mark [6] stands for this setting: EtOH:water 83:17, water activity 0.64.
[7] abbreviates: EtOH:water 92.8:7.2, water activity 0.40.
Where [8] appears, read: EtOH:water 96.7:3.3, water activity 0.22.
[9] abbreviates: MeOH:water 36:64, water activity 0.83.
The mark [10] stands for this setting: MeOH:water 77:23, water activity 0.52.
Where [11] appears, read: MeOH:water 90:10, water activity 0.30.
Where [12] appears, read: MeOH:water 95.3:4.7, water activity 0.16.

As for `CS(=O)(=O)N1CCC(COc2coc(CN3Cc4ccc(C(F)(F)F)cc4C3)cc2=O)CC1` [2-Naphthalenesulphonic acid salt (form 1)] [5-((1-(methyl-sulfonyl)piperidin-4-yl)methoxy)-2-((5-(trifluoromethyl)isoindolin-2-yl)methyl)-4H-pyran-4-one], the “Form after 2 weeks” value in series [1] was “No change”.
On the same count and under the same terms, the value for `CS(=O)(=O)N1CCC(COc2coc(CN3Cc4ccc(C(F)(F)F)cc4C3)cc2=O)CC1` [Benzenesulfonic acid salt (form 1), 5-((1-(methyl-sulfonyl)piperidin-4-yl)methoxy)-2-((5-(trifluoromethyl)isoindolin-2-yl)methyl)-4H-pyran-4-one] was “No change”.
As to `CS(=O)(=O)N1CCC(COc2coc(CN3Cc4ccc(C(F)(F)F)cc4C3)cc2=O)CC1` [Form 3, 5-((1-(methylsulfonyl)-piperidin-4-yl)methoxy)-2-((5-(trifluoromethyl)isoindolin-2-yl)methyl)-4H-pyran-4-one], in series [2] (slurry in solvent:water mixtures and methanol, 5-40° C., 2-3 weeks), the “Stability of the crystalline form in the slurry conditions” value is on record as “unstable”. For the same compound, the “Resulting form 5° C.” value in series [2] (setting [3]) is on record as “Form 2”; in series [2] (setting [4]), “Form 2”; in series [2] (setting [5]), “Form 2”; in series [2] (setting [6]) it was “Form 2”; in series [2] (setting [7]) it was “Form 1”; in series [2] (setting [8]), “Form 1”. Besides, the “Resulting form 5° C.” value in series [2] (MeOH alone) was “Form 1”; in series [2] (setting [9]), “Form 2”; in series [2] (setting [10]), “Form 2”; in series [2] (setting [11]), “Form 1”; in series [2] (setting [12]), “Form 1”. Moreover, the “Resulting form 25° C.” value in series [2] (setting [3]) is “Form 2”; in series [2] (setting [4]), “Form 2”; in series [2] (setting [5]) it was “Form 2”; in series [2] (setting [6]), “Form 2”; in series [2] (setting [7]) it was “Form 1”; in series [2] (setting [8]) it was “Form 1”. For the same compound, the “Resulting form 25° C.” value was “Form 1” in series [2] (MeOH alone); “Form 2” in series [2] (setting [9]); “Form 2” in series [2] (setting [10]); “Form 1” in series [2] (setting [11]); “Form 1” in series [2] (setting [12]). Moreover, the “Resulting form 40° C.” value was “Form 2” in series [2] (setting [3]); “Form 2” in series [2] (setting [4]); “Form 2” in series [2] (setting [5]); “Form 2” in series [2] (setting [6]); “Form 1” in series [2] (setting [7]); “Form 1” in series [2] (setting [8]). Besides, the “Resulting form 40° C.” value in series [2] (MeOH alone) is on record as “Form 1”; in series [2] (setting [9]), “Form 2”; in series [2] (setting [10]) it was “Form 1”; in series [2] (setting [11]) it was “Form 1”; in series [2] (setting [12]) it was “Form 1”.
Take `CS(=O)(=O)N1CCC(COc2coc(CN3Cc4ccc(C(F)(F)F)cc4C3)cc2=O)CC1` [Hydrobromic acid salt (form 1), 5-((1-(methyl-sulfonyl)piperidin-4-yl)methoxy)-2-((5-(trifluoromethyl)isoindolin-2-yl)methyl)-4H-pyran-4-one]: the “Form after 2 weeks” value in series [1] is reported as “No change”.
On to `CS(=O)(=O)N1CCC(COc2coc(CN3Cc4ccc(C(F)(F)F)cc4C3)cc2=O)CC1` [Hydrochloric acid salt (form 1), 5-((1-(methyl-sulfonyl)piperidin-4-yl)methoxy)-2-((5-(trifluoromethyl)isoindolin-2-yl)methyl)-4H-pyran-4-one], for which the “Form after 2 weeks” value in series [1] was “No change”.
The same measure, in the same setting: the value for `CS(=O)(=O)N1CCC(COc2coc(CN3Cc4ccc(C(F)(F)F)cc4C3)cc2=O)CC1` [Maleic acid salt (form 1), 5-((1-(methyl-sulfonyl)piperidin-4-yl)methoxy)-2-((5-(trifluoromethyl)isoindolin-2-yl)methyl)-4H-pyran-4-one] was “Form 1 + extra peaks”; that for `CS(=O)(=O)N1CCC(COc2coc(CN3Cc4ccc(C(F)(F)F)cc4C3)cc2=O)CC1` [Methanesulfonic acid salt (form 1), 5-((1-(methyl-sulfonyl)piperidin-4-yl)methoxy)-2-((5-(trifluoromethyl)isoindolin-2-yl)methyl)-4H-pyran-4-one] was “No change”.
The same measure, in the same setting: the value for `CS(=O)(=O)N1CCC(COc2coc(CN3Cc4ccc(C(F)(F)F)cc4C3)cc2=O)CC1` [Oxalic acid salt (form 1), 5-((1-(methyl-sulfonyl)piperidin-4-yl)methoxy)-2-((5-(trifluoromethyl)isoindolin-2-yl)methyl)-4H-pyran-4-one] was “Form 1 + extra peaks”.
`CS(=O)(=O)N1CCC(COc2coc(CN3Cc4ccc(C(F)(F)F)cc4C3)cc2=O)CC1` [Oxalic acid salt (form 2), 5-((1-(methyl-sulfonyl)piperidin-4-yl)methoxy)-2-((5-(trifluoromethyl)isoindolin-2-yl)methyl)-4H-pyran-4-one]: in series [1], the “Form after 2 weeks” value is “No change”.
Consider `CS(=O)(=O)N1CCC(COc2coc(CN3Cc4ccc(C(F)(F)F)cc4C3)cc2=O)CC1` [Oxalic acid salt (form 3), 5-((1-(methyl-sulfonyl)piperidin-4-yl)methoxy)-2-((5-(trifluoromethyl)isoindolin-2-yl)methyl)-4H-pyran-4-one], for which the “Form after 2 weeks” value in series [1] is recorded as “Form 3 + extra peaks”.
On the same count and under the same terms, to `CS(=O)(=O)N1CCC(COc2coc(CN3Cc4ccc(C(F)(F)F)cc4C3)cc2=O)CC1` [Oxalic acid salt (form 4), 5-((1-(methyl-sulfonyl)piperidin-4-yl)methoxy)-2-((5-(trifluoromethyl)isoindolin-2-yl)methyl)-4H-pyran-4-one] belongs “No change”.
Turning to `CS(=O)(=O)N1CCC(COc2coc(CN3Cc4ccc(C(F)(F)F)cc4C3)cc2=O)CC1` [p-Toluenesulfonic acid salt (form 1), 5-((1-(methylsulfonyl)-piperidin-4-yl)methoxy)-2-((5-(trifluoromethyl)isoindolin-2-yl)methyl)-4H-pyran-4-one], the “Water activity in which the crystalline form is favoured” value in series [2] (slurry experiments, 5-40° C., 2-3 weeks, values stated as 'about', listed as crystalline form 1 of p-toluenesulfonic acid salt) is recorded as “up to 0.4”. Besides, the “Form after 2 weeks” value in series [1] is “No change”.
